From PMC5730592, “Parallelogram based approach for in vivo dose estimation of genotoxic metabolites in humans with relevance to reduction of animal experiments” (Scientific Reports, 2017)
“And” between values parts separate entries of the source, which are not always exact repeats. Equal values may be shown once. Read-outs that look alike come from different tables or passages of the source.

Assays:
[1] = Parallelogram approach estimation of AUC-GA in human; settings: predicted ratio × measured human AUC-AA
From the text: (§1) The parallelogram approach representing inter-species comparison of in vivo dose and the use of in vitro data is shown in Fig. 1 for the metabolic transformation of R to RX, which is referred to as the metabolism of AA to GA in the present study. This figure can be formulated to Eq. 1 as described in Methods (cf. Eq. 5), where the superscripts H and R represent the corresponding AUC or EE in human and rat, respectively.1 AUC^H−RX/AUC^R−RX=EE^H−R→RX/EE^H−RXel/EE^R−R→RX/EE^R−RXel×AUC^H−R/AUC^R−R
(§2) The in vitro data on enzyme kinetics from human and rat (Table 1), and the in vivo data on AUC of AA and of GA in rat (Table 2) were used to calculate the predictive value of AUC-GA per AUC-AA in human, according to the parallelogram approach (cf. Methods, Eq. 5). This was calculated to 0.087 (Table 3). […] It was observed that the AUC-GA in human and rat predicted by the parallelogram approach and from measured Hb adduct levels, respectively, differed with about a factor of 3 (cf. Tables 2 and 3). This difference is within the variability range of AUC-GA for respective species calculated from different in vivo studies. […]

[2] = cited from earlier work
[3] = Parallelogram approach estimation of AUC-GA in rat
From the text: as §1, §2

[4] = set-up: method as in Doerge at al. (2005); settings: male F344 rats, single dietary exposure ca. 100 µg AA/kg bw, n = 7, direct measurements; ref Doerge at al. (2005); cited from earlier work

## NC(=O)C1CO1 (racemic) [GA, rac-Glycidamide]
[1]
  AUC-GA estimated from the parallelogram approach: 18 nM·h/μg AA per kg bw and 18^a nM·h/μg AA per kg bw
[2]; Rat (male F344), 500 and 2000 μg AA/kg bw and day in drinking water, one week, n = 6, from Hb adducts
  AUC-GA: 18 nM·h/μg AA per kg bw and 18 ± 1 nM·h/μg AA per kg bw
[2]; SD rat (male), subchronic intraperitoneal AA, Hb adducts on cysteine site
  AUC of GA: 16.3 nM·h per μg AA per kg bw
[2]; male F344 rats, single dose 0.1 mg AA/kg bw, Hb adducts, ref Tareke et al. (2006)
  AUC-GA: 14 nM·h/ μg AA per kg bw
[3]; Rat, predicted ratio × measured rat AUC-AA
  AUC-GA estimated from the parallelogram approach: 48 nM·h/μg AA per kg bw
[3]; from the parallelogram approach
  ratio between species (rat-to-human) of AUC-GA per AUC-AA: 16
[4]
  AUC-GA: 19 nM·h/ μg AA per kg bw
